# Measured values as given in ChEMBL document CHEMBL1143001, “Designing active template molecules by combining computational de novo design and human chemist's expertise” (J Med Chem, 2007).
# Activity calls are given as the source filed them. The calls are words filed in the database; no cut-off is given here.
# How the values were obtained:
# [1] = target: Adrenergic receptor alpha-1 (Rattus norvegicus) (UniProt P15823+P23944+P43140); experiment: Displacement of radiolabeled prazosin from adrenergic alpha1 receptor in rat cerebral cortex; format: tissue-based
# [2] = species: Bos taurus; experiment: Inhibition of bovine lung guanylyl cyclase at 10 uM
# [3] = species: Homo sapiens; experiment: Displacement of radiolabeled ligand from nicotinic acetylcholine receptor at 10 uM
# [4] = species: Sus scrofa; experiment: Inhibition of pig liver catechol-O-methyl transferase at 10 uM
# [5] = target: Cannabinoid receptor 1 (Homo sapiens) (UniProt P21554); experiment: Displacement of radiolabeled WIN-55212-2 from human CB1 receptor expressed in HEK293 cells at 10 uM; format: cell-based
# [6] = target: Muscarinic acetylcholine receptor M3 (Rattus norvegicus) (UniProt P08483); experiment: Displacement of radiolabeled atropine from rat brain muscarinic M3 receptor at 10 uM
# [7] = target: Substance-P receptor (Homo sapiens) (UniProt P25103); experiment: Displacement of radiolabeled [Sar9,Met(O2)11]-SP from NK1 receptor expressed in U373MG cells at 10 uM; format: cell-based; conditions: U-373MG ATCC
# [8] = species: Rattus norvegicus; experiment: Displacement of radiolabeled kainic acid from rat cerebral cortex Kainate receptor at 10 uM; format: tissue-based
# [9] = species: Canis lupus familiaris; experiment: Inhibition of dog kidney (Na+/K+) ATPase at 10 uM
# [10] = target: Acetylcholinesterase (Homo sapiens) (UniProt P22303); experiment: Inhibition of human recombinant AChE expressed in HEK293 cells at 10 uM; format: cell-based
# [11] = target: T1, Amine oxidase [flavin-containing] B (Homo sapiens, UniProt P27338); experiment: Inhibition of MAOB in human platelets at 10 uM
# T1 sequence (P27338 whole entry): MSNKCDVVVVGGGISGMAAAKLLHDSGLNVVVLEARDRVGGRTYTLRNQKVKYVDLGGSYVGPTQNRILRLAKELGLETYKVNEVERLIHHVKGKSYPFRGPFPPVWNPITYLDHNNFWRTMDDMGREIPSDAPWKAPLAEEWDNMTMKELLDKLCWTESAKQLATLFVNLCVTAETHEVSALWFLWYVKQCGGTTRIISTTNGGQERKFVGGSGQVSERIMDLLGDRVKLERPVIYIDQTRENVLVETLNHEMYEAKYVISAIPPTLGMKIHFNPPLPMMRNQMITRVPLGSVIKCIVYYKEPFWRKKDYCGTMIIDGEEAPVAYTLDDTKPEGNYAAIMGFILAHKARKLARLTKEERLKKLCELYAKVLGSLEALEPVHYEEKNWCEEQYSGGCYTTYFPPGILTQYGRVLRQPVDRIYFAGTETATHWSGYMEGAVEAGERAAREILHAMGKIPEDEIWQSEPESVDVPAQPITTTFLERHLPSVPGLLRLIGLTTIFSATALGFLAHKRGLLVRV
# [12] = target: Serotonin (5-HT) receptor (Rattus norvegicus) (UniProt P35563+P35365+P32305+P31388+Q9JJ16+P28564+P30994+Q62758+P08909+P14842+P30940+P35364+P19327+P28565); experiment: Displacement of radiolabeled serotonin from 5-HT receptor in rat cerebral cortex; format: tissue-based
# [13] = target: 4-aminobutyrate aminotransferase, mitochondrial (Rattus norvegicus) (UniProt P50554); experiment: Inhibition of rat brain GABA transaminase at 10 uM
# [14] = target: T2, Phenylethanolamine N-methyltransferase (Bos taurus) (UniProt P10938); experiment: Inhibition of bovine adrenal medulla phenylethanolamine-N-methyl transferase at 10 uM; format: tissue-based
# T2 sequence (whole entry): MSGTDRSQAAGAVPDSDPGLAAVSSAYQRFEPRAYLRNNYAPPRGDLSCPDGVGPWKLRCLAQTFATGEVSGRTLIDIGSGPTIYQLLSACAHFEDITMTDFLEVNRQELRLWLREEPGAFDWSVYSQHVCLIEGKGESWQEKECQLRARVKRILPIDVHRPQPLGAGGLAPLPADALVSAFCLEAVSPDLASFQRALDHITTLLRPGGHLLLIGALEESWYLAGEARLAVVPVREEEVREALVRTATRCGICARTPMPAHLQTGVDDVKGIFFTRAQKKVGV
# [15] = target: Muscarinic acetylcholine receptor M2 (Rattus norvegicus) (UniProt P10980); experiment: Displacement of radiolabeled atropine from rat brain muscarinic M2 receptor at 10 uM
# [16] = target: cGMP-specific 3',5'-cyclic phosphodiesterase (Homo sapiens) (UniProt O76074); experiment: Inhibition of PDE5 in human platelet cells at 10 uM; format: cell-based
# [17] = target: Sodium-dependent dopamine transporter (Homo sapiens) (UniProt Q01959); experiment: Displacement of radiolabeled BTCP from human recombinant DAT expressed in CHO cells at 10 uM; format: cell-based
# [18] = target: Muscarinic acetylcholine receptor M1 (Rattus norvegicus) (UniProt P08482); experiment: Displacement of radiolabeled atropine from rat brain muscarinic M1 receptor at 10 uM
# [19] = species: Bos taurus; experiment: Inhibition of bovine PDE1 at 10 uM
# [20] = target: Sodium-dependent serotonin transporter (Homo sapiens) (UniProt P31645); experiment: Displacement of radiolabeled Imipramine from human recombinant 5HT transporter expressed in HEK293 cells at 10 uM; format: cell-based
# [21] = target: Phosphodiesterase 4 (Homo sapiens) (UniProt P27815+Q08499+Q07343+Q08493); experiment: Inhibition of PDE4 expressed in U937 cells at 10 uM; format: cell-based; conditions: U-937
# [22] = species: Rattus norvegicus; experiment: Inhibition of rat brain adenylyl cyclase at 10 uM
# [23] = target: Sodium-dependent noradrenaline transporter (Homo sapiens) (UniProt P23975); experiment: Displacement of radiolabeled protriptyline from human recombinant NET expressed in CHO cells at 10 uM; format: cell-based
# [24] = target: cGMP-dependent 3',5'-cyclic phosphodiesterase (Homo sapiens) (UniProt O00408); experiment: Inhibition of PDE2 expressed in differentiated U937 cells at 10 uM; format: cell-based; conditions: U-937
# [25] = system: Protein kinase C (Rattus norvegicus); experiment: Inhibition of rat brain PKC at 10 uM
# [26] = species: Rattus norvegicus; experiment: Displacement of radiolabeled naloxone from opiate receptor in rat cerebral cortex; format: tissue-based
# [27] = target: Muscarinic acetylcholine receptor M5 (Rattus norvegicus) (UniProt P08911); experiment: Displacement of radiolabeled atropine from rat brain muscarinic M5 receptor at 10 uM
# [28] = target: Phosphodiesterase 3 (Homo sapiens) (UniProt Q14432+Q13370); experiment: Inhibition of PDE3 expressed in human platelets at 10 uM
# [29] = target: Adrenergic receptor alpha-2 (Rattus norvegicus) (UniProt P22086+P19328+P22909); experiment: Displacement of radiolabeled yohimbine from adrenergic alpha-2 receptor in rat cerebral cortex; format: tissue-based
# [30] = target: Muscarinic acetylcholine receptor M4 (Rattus norvegicus) (UniProt P08485); experiment: Displacement of radiolabeled atropine from rat brain muscarinic M4 receptor at 10 uM
# [31] = species: Rattus norvegicus; experiment: Inhibition of rat striatum tyrosine hydroxylase at 10 uM; format: tissue-based
# Chain of Sodium-dependent dopamine transporter (Homo sapiens) (Q01959 whole entry): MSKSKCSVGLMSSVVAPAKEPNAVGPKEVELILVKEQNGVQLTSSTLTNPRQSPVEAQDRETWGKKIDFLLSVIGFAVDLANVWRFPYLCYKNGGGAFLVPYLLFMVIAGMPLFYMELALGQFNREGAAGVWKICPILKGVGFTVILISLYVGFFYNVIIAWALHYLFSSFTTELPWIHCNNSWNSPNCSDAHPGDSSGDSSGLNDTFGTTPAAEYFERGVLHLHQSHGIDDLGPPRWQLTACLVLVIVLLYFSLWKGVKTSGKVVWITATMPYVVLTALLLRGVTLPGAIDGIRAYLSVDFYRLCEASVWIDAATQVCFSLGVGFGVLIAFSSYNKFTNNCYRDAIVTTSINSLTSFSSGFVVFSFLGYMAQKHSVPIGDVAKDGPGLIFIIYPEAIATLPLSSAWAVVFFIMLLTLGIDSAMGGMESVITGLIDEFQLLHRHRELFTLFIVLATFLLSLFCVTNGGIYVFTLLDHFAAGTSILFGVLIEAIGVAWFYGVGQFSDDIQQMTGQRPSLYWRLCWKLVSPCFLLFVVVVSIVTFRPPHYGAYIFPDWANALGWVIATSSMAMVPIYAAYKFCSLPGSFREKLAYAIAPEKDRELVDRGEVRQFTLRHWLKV
# Chain of Muscarinic acetylcholine receptor M3 (Rattus norvegicus) (P08483 whole entry, looked up): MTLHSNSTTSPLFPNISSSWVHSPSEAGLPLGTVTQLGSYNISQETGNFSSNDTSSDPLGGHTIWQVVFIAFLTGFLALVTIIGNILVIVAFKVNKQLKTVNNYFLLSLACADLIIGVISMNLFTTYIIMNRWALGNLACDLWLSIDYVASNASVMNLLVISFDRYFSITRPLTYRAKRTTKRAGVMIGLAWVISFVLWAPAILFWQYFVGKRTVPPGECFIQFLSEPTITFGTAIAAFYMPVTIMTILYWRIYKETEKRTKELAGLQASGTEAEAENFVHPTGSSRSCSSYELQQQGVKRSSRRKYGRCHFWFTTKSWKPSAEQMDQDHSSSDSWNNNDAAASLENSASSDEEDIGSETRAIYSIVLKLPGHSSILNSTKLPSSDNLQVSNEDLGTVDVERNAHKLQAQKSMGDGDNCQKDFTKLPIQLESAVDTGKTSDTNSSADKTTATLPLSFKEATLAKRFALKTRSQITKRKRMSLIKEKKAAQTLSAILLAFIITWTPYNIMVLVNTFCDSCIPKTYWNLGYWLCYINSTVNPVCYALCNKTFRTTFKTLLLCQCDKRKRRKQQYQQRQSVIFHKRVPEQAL
# Chain of Sodium-dependent serotonin transporter (Homo sapiens) (P31645 whole entry, looked up): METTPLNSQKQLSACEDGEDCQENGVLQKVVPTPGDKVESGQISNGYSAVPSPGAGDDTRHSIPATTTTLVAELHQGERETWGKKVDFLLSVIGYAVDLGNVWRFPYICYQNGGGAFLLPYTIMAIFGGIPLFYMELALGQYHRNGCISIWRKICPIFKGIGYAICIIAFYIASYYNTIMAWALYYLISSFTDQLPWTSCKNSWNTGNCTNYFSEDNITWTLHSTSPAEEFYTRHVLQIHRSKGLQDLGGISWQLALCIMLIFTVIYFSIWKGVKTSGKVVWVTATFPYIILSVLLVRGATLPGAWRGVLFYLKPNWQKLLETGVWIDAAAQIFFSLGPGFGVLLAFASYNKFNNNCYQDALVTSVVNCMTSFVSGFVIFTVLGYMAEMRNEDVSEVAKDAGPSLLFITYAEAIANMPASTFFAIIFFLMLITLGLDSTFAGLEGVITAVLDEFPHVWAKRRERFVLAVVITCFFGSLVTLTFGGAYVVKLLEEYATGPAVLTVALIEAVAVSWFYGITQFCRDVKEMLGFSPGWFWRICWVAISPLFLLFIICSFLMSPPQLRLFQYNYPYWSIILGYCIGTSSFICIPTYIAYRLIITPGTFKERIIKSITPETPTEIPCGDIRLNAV
# Chain of 4-aminobutyrate aminotransferase, mitochondrial (Rattus norvegicus) (P50554 28-500 limits assumed): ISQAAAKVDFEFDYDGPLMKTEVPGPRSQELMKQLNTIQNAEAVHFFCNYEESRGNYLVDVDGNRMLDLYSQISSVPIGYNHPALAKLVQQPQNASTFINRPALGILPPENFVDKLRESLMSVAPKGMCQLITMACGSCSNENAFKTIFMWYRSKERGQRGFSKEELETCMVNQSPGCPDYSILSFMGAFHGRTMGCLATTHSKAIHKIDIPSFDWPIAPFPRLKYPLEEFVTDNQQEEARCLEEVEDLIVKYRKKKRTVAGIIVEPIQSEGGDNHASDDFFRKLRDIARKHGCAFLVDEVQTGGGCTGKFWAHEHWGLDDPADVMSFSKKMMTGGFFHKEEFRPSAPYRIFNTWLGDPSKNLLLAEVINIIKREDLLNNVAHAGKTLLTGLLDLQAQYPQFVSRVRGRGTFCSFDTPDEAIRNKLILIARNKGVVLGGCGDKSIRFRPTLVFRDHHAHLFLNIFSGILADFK
# Chain of Substance-P receptor (Homo sapiens) (P25103 whole entry): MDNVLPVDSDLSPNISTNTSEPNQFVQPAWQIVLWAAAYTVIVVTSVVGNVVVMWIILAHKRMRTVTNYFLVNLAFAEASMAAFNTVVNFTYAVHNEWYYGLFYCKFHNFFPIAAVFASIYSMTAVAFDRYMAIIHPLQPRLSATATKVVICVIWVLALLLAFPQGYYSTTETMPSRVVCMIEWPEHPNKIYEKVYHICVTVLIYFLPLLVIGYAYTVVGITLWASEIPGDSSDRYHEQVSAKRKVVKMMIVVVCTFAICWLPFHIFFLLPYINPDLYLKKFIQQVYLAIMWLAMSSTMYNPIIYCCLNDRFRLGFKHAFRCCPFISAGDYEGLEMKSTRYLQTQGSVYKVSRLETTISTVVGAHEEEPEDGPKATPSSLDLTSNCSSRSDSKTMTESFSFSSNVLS
# Chain of Cannabinoid receptor 1 (Homo sapiens) (P21554 whole entry): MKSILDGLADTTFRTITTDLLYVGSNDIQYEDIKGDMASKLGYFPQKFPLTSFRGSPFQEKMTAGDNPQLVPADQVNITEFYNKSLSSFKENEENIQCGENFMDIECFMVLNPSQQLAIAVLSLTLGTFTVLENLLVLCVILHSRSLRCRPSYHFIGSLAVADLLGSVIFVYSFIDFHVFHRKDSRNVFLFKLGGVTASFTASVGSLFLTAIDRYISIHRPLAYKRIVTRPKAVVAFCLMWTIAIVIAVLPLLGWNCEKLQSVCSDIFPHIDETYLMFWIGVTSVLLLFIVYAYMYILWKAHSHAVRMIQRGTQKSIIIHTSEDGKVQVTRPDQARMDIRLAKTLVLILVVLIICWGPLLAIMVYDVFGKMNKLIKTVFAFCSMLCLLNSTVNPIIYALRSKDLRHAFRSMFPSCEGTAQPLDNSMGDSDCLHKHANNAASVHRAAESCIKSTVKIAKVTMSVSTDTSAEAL
# Chain of Muscarinic acetylcholine receptor M4 (Rattus norvegicus) (P08485 whole entry): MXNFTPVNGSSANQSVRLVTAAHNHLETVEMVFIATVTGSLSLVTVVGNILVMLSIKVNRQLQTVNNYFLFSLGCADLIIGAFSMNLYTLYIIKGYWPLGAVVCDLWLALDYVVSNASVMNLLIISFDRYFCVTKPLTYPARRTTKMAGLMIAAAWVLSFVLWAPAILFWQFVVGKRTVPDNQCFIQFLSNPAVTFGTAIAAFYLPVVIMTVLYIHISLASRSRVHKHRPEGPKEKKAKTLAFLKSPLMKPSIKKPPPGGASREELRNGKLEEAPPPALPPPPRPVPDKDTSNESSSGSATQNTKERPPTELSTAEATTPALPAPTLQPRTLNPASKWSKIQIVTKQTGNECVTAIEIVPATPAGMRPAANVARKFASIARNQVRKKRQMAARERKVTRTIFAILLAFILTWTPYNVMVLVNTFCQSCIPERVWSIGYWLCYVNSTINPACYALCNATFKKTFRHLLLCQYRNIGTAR
# Chain of Muscarinic acetylcholine receptor M1 (Rattus norvegicus) (P08482 whole entry): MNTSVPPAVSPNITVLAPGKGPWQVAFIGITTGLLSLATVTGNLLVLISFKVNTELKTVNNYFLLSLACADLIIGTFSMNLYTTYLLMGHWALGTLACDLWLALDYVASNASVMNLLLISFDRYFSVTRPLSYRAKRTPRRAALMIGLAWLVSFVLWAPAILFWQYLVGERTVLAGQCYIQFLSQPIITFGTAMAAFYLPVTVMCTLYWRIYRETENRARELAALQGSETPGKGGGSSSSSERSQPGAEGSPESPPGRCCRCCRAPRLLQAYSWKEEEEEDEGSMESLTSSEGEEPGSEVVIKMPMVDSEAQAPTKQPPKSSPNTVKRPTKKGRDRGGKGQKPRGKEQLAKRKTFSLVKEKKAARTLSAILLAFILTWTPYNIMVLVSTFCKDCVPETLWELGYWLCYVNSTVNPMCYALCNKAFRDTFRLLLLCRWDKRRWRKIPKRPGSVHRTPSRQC
# Chain of Sodium-dependent noradrenaline transporter (Homo sapiens) (P23975 whole entry): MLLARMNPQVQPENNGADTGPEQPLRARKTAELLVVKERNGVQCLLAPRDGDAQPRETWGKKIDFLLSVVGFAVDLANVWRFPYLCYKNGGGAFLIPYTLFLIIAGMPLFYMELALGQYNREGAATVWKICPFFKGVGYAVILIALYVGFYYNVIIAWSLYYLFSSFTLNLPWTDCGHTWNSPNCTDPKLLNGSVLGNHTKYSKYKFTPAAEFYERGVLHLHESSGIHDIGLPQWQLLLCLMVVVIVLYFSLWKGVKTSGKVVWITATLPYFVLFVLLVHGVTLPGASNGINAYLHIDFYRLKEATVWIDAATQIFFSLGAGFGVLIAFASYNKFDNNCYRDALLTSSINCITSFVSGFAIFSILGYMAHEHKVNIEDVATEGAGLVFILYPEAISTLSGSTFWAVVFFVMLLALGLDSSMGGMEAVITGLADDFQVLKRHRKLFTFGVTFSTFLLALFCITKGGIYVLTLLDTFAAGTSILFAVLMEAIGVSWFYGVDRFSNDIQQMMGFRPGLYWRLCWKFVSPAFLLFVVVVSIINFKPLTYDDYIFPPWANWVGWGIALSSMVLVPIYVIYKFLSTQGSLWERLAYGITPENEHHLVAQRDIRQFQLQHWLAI
smiles,measurement,setting,value
O=C(O)c1ccccc1C1CCCNC1 (stereo unspecified),Activity,[1],inactive
same,Activity,[2],inactive
same,Activity,[3],inactive
same,Activity,[4],inactive
same,Activity,[5],inactive
same,Activity,[6],inactive
same,Activity,[7],inactive
same,Activity,[8],inactive
same,Activity,[9],inactive
same,Activity,[10],inactive
same,Activity,[11],Not Active
same,Activity,[12],inactive
same,Activity,[13],inactive
same,Activity,[14],inactive
same,Activity,[15],inactive
same,Activity,[16],inactive
same,Activity,[17],inactive
same,Activity,[18],inactive
same,Activity,[19],inactive
same,Activity,[20],inactive
same,Activity,[21],inactive
same,Activity,[22],inactive
same,Activity,[23],inactive
same,Activity,[24],inactive
same,Activity,[25],inactive
same,Activity,[26],inactive
same,Activity,[27],inactive
same,Activity,[28],inactive
same,Activity,[29],inactive
same,Activity,[30],inactive
same,Activity,[31],inactive
